The results in this text go back to patent US20230219898A1, “COMPOUNDS AND METHODS FOR BLOCKING APOPTOSIS AND INDUCING AUTOPHAGY” (President and Fellows of Harvard College, priority 2020, published 2023).

Data set [1] is described as follows: Pharmacokinetic (DMPK) study of Apt-1, intracerebroventricular micro-osmotic pump. The class given is in vivo, mice. The settings on record: mouse, hippocampus, ICV pump 20 mM Apt-1, 0.25 μl/h. The protocol: Apt-1 was delivered using intracerebroventricular Alzet micro-osmotic pump (20 mM Apt-1, […], release rate: […]). CSF was collected at 1 h, 6 h, and 24 h. Hippocampi were collected at 24 h. The concentrations of Apt-1 were measured by HPLC. The concentration of Apt-1 in hippocampus at 24 h was 6.27 μM. Mean ±s.e.m. (n=3 mice in each group).
WT mice (2 months old) were deeply anesthetized with isoflurane and immobilized in a stereotaxic frame using predetermined coordinates under aseptic conditions. All animals were observed during and after surgery, and an analgesic was administered after surgery. Apt-1 (20 mM, 100 μl, release rate: 0.25 μl/h) was delivered intracerebroventricularly via an ALZET micro-osmotic pump (ALZET Model 1002) and ALZET brain infusion kits into lateral ventricles (ML, −1.0 mm; AP, −0.5 mm; DV, 2.0 mm). The ALZET micro-osmotic pumps were fixed on the skulls of the mice by instant adhesive and the skin incision was closed by suture. At 1 h, 6 h and 24 h after the onset of delivery, cerebrospinal fluid (CSF) was carefully withdrawn by a Hamilton syringe from lateral ventricles (ML, −1.0 mm; AP, −0.5 mm; DV, 2.0 mm) for DMPK analysis. The mice were sacrificed at 24 h and the hippocampi were dissected for DMPK analysis. […] The concentrations of Apt-1 in collected samples were measured by HPLC as a custom service by the Scripps Research Institute Florida.

Another data set relates to mice injected with mTNFα. As to the kind of experiment: In vivo delivery of TNFα, systemic inflammation model. The conditions noted are these: Apt-1 20 mg/kg i.p. 30 min before mTNFα 9.5 μg i.v. The protocol:
Control mice (n=9) received an equal amount of vehicle before mTNFα challenge. Mean s.e.m. Two-way ANOVA. ***P=0.0007.
WT mice (n=10, male, 8 weeks of age) were injected intravenously via the tail vein with mTNFα (9.5 μg/mouse) after an intraperitoneal injection of Apt-1 (20 mg/kg) 30 min before. Control mice (n=9) received an equal amount of vehicle 30 min before mTNFα challenge. Kaplan Meier survival curve was determined. 25. Vps34 lipid kinase assay HEK293T cells were transfected with Flag-Beclin 1 for 18 h and then treated with ICCB-19, ICCB-19i, Apt-1 (10 μM) for another 6 h. Flag-Beclin 1 was immunoprecipitated by anti-Flag to isolate Beclin 1/Vps34 complex. Immunoprecipitated beads were added with sonicated phosphatidylinositol (1 μl of 5 mg) and ATP (1 μl of 10 mM) in 30 μl reaction buffer (40 mM Tris (pH 7.5), 20 mM MgCl2, 1 mg/ml BSA) for 30 min at room temperature. Wortmannin (10 μM) was used as a control and added into the reaction to inhibit Vps34. The conversion of ATP into ADP levels was measured by an ADP-Glo Kinase Assay Kit (Promega) according to the manufacturer's instructions.

Data set [2] relates to brain slices from PS19 mice. Description: Cultured organotypic brain slices from PS19 mice. The class given is cell-based. The settings on record: treatment for 3 h. The protocol: FIG. 14g contains epresentative images and quantification of cultured brain slices from PS19 mice (4 months old) stained with phospho-tau (red) and cell nuclei (DAPI/blue). Mean ±s.e.m. from biological replicates (n=5). Two-tailed t-test.
PS19 mice (4 months old) were anesthetized with isoflurane prior to decapitation. The brain was removed and immediately immersed in ice-cold cutting solution (2.5 mM KCl, 5 mM MgCl2, 11 mM D-Glucose, 238 mM Sucrose, 26 mM NaHCO3, 1 mM NaH2PO4, 1 mM CaCl2)). The cerebellum was trimmed off and the caudal end of the brain was glued onto the cutting table of the vibratome (LEICA VT1000 S, Germany). The brain was cut in coronal slices of […] with an amplitude of 1.5 mm, a frequency of 75 Hz and a velocity of 0.1 mm/s. The slices were collected and stored in ice-cold cutting solution before floating onto semi-porous membrane inserts (Millipore, Millicell-CMLow Height Culture Plate Inserts, Schwalbach, Germany). Slices were cultured at 37° C. and 5% CO2 in a culture medium consisting of 394 ml MEM, 10% normal horse serum, 5 mg/mL penicillin, 5 mg/mL streptomycin, 2.5 ml L-glutamine, 1 mM MgSO4, 11 mM D-Glucose, 238 mM Sucrose, 5 mM NaHCO3, 1 mM CaCl2), 26.6 mM HEPES, 0.024 ml 25% ascorbic acid and 0.5 mg Insulin. Medium was changed every other day. Slices are maintained for 14 days in vitro prior to treatment.

Data set [3] has as its system PS19 mice injected with tau pffs. As to the kind of experiment: Tau pff transmission model in PS19 mice, Apt-1 delivered intracerebroventricularly.
In another data set the test system is RIPK1 in complex I. As to the kind of experiment: RIPK1 activation in complex I of TNFα-stimulated MEFs. Format: cell-based, mouse. The conditions noted are these: 10 μM. The protocol:
Cells were seeded in 15 cm dishes and treated as indicated with Flag-TNFα ([…]). To terminate treatment, media was removed and plates were washed with 50 mL of ice cold PBS. Plates were frozen at −80C until all time points were acquired. Plates were thawed on ice and cells were lysed in 0.5% NP-40 lysis buffer (50 mM Tris-HCl pH 7.5, 150 mM NaCl and 0.5% NP-40) supplemented with protease inhibitors and N-Ethylmaleimide (2.5 mg/ml). Cell lysates were rotated at 4° C. for 30 min then clarified at 4° C. at 14,000 rpm for 30 min. Proteins were immunoprecipitated from cleared protein lysates with 20 μl of anti-Flag M2 beads (Sigma) with rotation overnight at 4° C. 4×washes in 0.5% NP-40 buffer with N-Ethylmaleimide were performed, and samples eluted by boiling in 50 μl 1×SDS loading buffer. For complex-II purification cells were seeded in 10 cm dishes and treated as indicated using media containing TNFα (10 ng/ml) and zVAD (20 μM). Cells were lysed on ice in 0.5% NP-40 lysis buffer. Cell lysates were rotated at 4C for 30 min then clarified at 4C at 14,000 rpm for 10 min. 20 μl of protein G Sepharose (Sigma), after pre-blocking for 1 h with lysis buffer containing 1% BSA, were incubated with FADD antibody ([…]) and the mixture was incubated in rotation with cleared protein lysates 4 h at 4C. […]

The molecule `CN1CCN=C1SC(C(=O)NC1CCCCCC1)c1ccccc1` (stereo not drawn) [Compound 30] had a concentration at 24 h in data set [1] of 6.27 µM. For the same molecule, the “survival following intravenously-delivered TNFα” value in the data set on mice injected with mTNFα is on record as “increased survival”. Also, the “autophagy and accumulation of mutant tau in brain slices” value in data set [2] is “induced autophagy and reduced the accumulation of mutant tau”. For the same molecule, the “survival or behavior of the mice” value in data set [3] (20 mM Apt-1 ICV pump, one month or one week) is on record as “no apparent difference in survival or behavior”. Besides, in data set [3] (Apt-1 for 1 week, 3 weeks after pffs), the “accumulation of tangle-like tau aggregates, delayed dosing” value is “effectively reduce the accumulation of tangle-like tau aggregates”. Further, the “autophagy and levels of tau in hippocampus” value in data set [3] (FIG. 3a) is “induce autophagy and reduce the levels of tau”. For the same molecule, the “neurofibrillary tangle-like pathogenesis induced by pffs (AT8, MC1)” value in data set [3] (FIG. 3b, 3c) was “reduced neurofibrillary tangle-like pathogenesis”. Moreover, the “activated pRIPK1+ and apoptotic TUNEL+ cells in CA1 hippocampus” value in data set [3] (FIG. 3d, 3e) is recorded as “inhibited”.
As for `O=C(CSC1=NCCN1)NC1CCCCCC1` [ICCB-19], the “activation of RIPK1 in complex I induced by TNFα” value in the data set with RIPK1 in complex I is given as “reduced the rapid activation of RIPK1”.
